In paper PMC8438204, “Unraveling the Thermodynamics of Ultra-tight Binding of Intrinsically Disordered Proteins” (Frontiers in Molecular Biosciences, 2021):
Read-outs that look alike come from different tables or passages of the source. Marks after values point to notes of the source that are not given here.

What was measured:
HigB2 toxin [1] = target: T1, HigB2 toxin (Vibrio cholerae serotype O1, UniProt Q9KMA6); assay: Competition ITC (global fit of direct and competition titrations with nanobody-HigB2 complex); format: binding; design: made in house; conditions: for ΔG (association): competition ITC (Nb6/Nb10), VP-ITC, 4 µM HigB2; for ΔG (association) / ΔH (association) / −TΔS (association): 20 mM sodium phosphate pH 7.5, 150 mM NaCl, three replicates
T1 sequence (Q9KMA6 1-110): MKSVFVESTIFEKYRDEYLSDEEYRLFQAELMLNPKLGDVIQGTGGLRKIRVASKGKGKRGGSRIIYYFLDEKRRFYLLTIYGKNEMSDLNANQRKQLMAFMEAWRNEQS

CcdB2 = conditions: ref Drobnak et al., 2013, cited from earlier work
Protocol: Supplement DataSheet1.docx, table 1: Table S1. Thermodynamic parameters and structural properties of the complexes. All parameters are reported at T = 25°C. | column: Thermodynamic parameters || Nonetheless, a handful of examples of IDP binders with ultra-high affinity have been characterized to date. […] Complexes are ordered according to the degree of energy optimization as estimated by the ΔH bind/ASAint values. For the HigA2_3-23-HigB2 complex the degree of energy optimization is similar to one observed for the pairs of globular high affinity binders (Supplementary Table S1, Figure 3A). […] The high affinit ...

[2] = system: E9-Im9 (colicin DNase - immunity protein); conditions: ref Keeble et al., 2006, cited from earlier work
Protocol: Supplement DataSheet1.docx, table 1: Table S1. Thermodynamic parameters and structural properties of the complexes. All parameters are reported at T = 25°C. | column: Thermodynamic parameters

HigB2 toxin [3] = target: T1, HigB2 toxin; conditions: full-length HigA2; temperature-dependent ITC; ref Hadži et al., 2017a; cited from earlier work
[4] = 25°C, competition ITC, listed as Full-length HigA2

CC(C)C[C@H](NC(=O)[C@H](C)NC(=O)[C@H](CO)NC(=O)[C@H](CO)NC(=O)[C@H](CC(C)C)NC(=O)[C@H](CCC(=O)O)NC(=O)[C@H](C)NC(=O)[C@H](Cc1ccccc1)NC(=O)[C@H](CC(C)C)NC(=O)[C@H](CC(=O)O)NC(=O)[C@H](CCCNC(=N)N)NC(=O)[C@@H](N)CC(N)=O)C(=O)N[C@H](C(=O)N[C@@H](CCC(=O)O)C(=O)N[C@@H](C)C(=O)N[C@@H](CCCCN)C(=O)N[C@@H](CCC(N)=O)C(=O)N[C@@H](Cc1c[nH]cn1)C(=O)N[C@@H](CO)C(=O)N[C@@H](CCC(=O)O)C(=O)NCC(=O)N[C@@H](Cc1c[nH]c2ccccc12)C(=O)O)C(C)C [HigA2_3-23] showed a Kd (HigB2 toxin [1]) of 3 pM.

In the case of “CcdA37-72 (RRLRAERWKAENQEGMAEVARFIEMNGSFADENRDW; UniProt P62552 37-72, looked up, fragment)”, the “-TΔS (binding)” value (CcdB2; 25°C, binding contribution) is listed as -0.5 kcal/mol, the “ΔG (binding)” value (CcdB2; 25°C, binding contribution) is listed as -19.4 kcal/mol and the “ΔH (binding)” value (CcdB2; 25°C, binding contribution) is listed as -18.9 kcal/mol. For the same molecule, the “-TΔS (folding)” value (CcdB2; 25°C, folding contribution) was 20.4 kcal/mol, the “ΔG (folding)” value (CcdB2; 25°C, folding contribution) was 3.8 kcal/mol and the “ΔH (folding)” value (CcdB2; 25°C, folding contribution) was -16.6 kcal/mol. For the same molecule, the “-TΔS (association)” value (CcdB2; 25°C) was 19.9 ± 0.3 kcal/mol, the “ΔG (association)” value (CcdB2; 25°C) was -15.6 ± 0.1 kcal/mol and the “ΔH (association)” value (CcdB2; 25°C) was -35.5 ± 0.2 kcal/mol. For the same molecule, the “ΔCp (association)” value (CcdB2) was -0.63 ± 0.02 kcal mol^-1 K^-1.

In the case of E9-Im9, the “-TΔS” value ([2]; 25°C) is listed as -8.1 ± 0.5 kcal/mol, the ΔG ([2]; 25°C) is listed as -18.6 ± 0.1 kcal/mol and the ΔCp [2] is listed as -0.45 kcal mol^-1 K^-1.

For HigA2, the “ΔG (association)” value (HigB2 toxin [1]; 25°C) was -14.7 kcal/mol, the “ΔG (association)” value (HigB2 toxin [1]; 25°C, listed as Full-length HigA2) was -14.7 ± 0.9 kcal/mol and the “ΔH (association)” value (HigB2 toxin [1]; 25°C, competition ITC) was -31.5 kcal/mol. The “−TΔS (association)” value (HigB2 toxin [1]; 25°C, competition ITC) was 16.8 kcal/mol, the “ΔH (association)” value (HigB2 toxin [1]; [4]) was -31.5 ± 1.0 kcal/mol and the “−TΔS (association)” value (HigB2 toxin [1]; [4]) was 16.8 ± 1.9 kcal/mol. The Kd (HigB2 toxin [1]; 25°C, competition ITC, value given in abstract, introduction, discussion and Figure 4 under the name HigA2, read-out: KD stated for HigA2-HigB2) was 3 pM and the “ΔCp (association)” value (HigB2 toxin [3]) was −0.95^a kcal mol^−1 K^-1.
